In publication PMC12028158, “Synthesis and In Vitro Evaluation of the Anticancer Effect of Novel Phosphonium Vindoline Derivatives” (International Journal of Molecular Sciences, 2025):
Read-outs that look alike come from different tables or passages of the source.

Columns and labels:
Assay type in all cases: cell-based
[1] = system: Breast Cancer panel; test: NCI60 five-dose screen, panel mean; conditions: Homo sapiens, read-out: Mean GI50
[2] = system: A549/ATCC; test: NCI60 one-dose screen; conditions: Homo sapiens
[3] = system: Colon Cancer panel; test: NCI60 five-dose screen, panel mean; conditions: Homo sapiens, read-out: Mean GI50
[4] = system: Melanoma panel; test: NCI60 five-dose screen, panel mean; conditions: Homo sapiens, read-out: Mean GI50
[5] = system: M14; test: NCI60 one-dose screen; conditions: Homo sapiens
[6] = system: KM12; test: NCI60 five-dose screen; conditions: Homo sapiens
[7] = system: NCI-H23; test: NCI60 one-dose screen; conditions: Homo sapiens
[8] = system: HCT-15; test: NCI60 five-dose screen; conditions: Homo sapiens
[9] = system: RPMI-8226; test: NCI60 five-dose screen; conditions: Homo sapiens
[10] = system: HCT-15; test: NCI60 one-dose screen; conditions: Homo sapiens
[11] = system: Leukemia panel; test: NCI60 five-dose screen, panel mean; conditions: Homo sapiens, read-out: Mean GI50
[12] = system: UO-31; test: NCI60 one-dose screen; conditions: Homo sapiens
[13] = system: Non-small Cell Lung Cancer panel; test: NCI60 five-dose screen, panel mean; conditions: Homo sapiens, read-out: Mean GI50
[14] = system: CAKI-1; test: NCI60 one-dose screen; conditions: Homo sapiens
[15] = system: MCF7; test: NCI60 five-dose screen; conditions: Homo sapiens
[16] = system: UACC-257; test: NCI60 five-dose screen; conditions: Homo sapiens
[17] = system: OVCAR-3; test: NCI60 one-dose screen; conditions: Homo sapiens
[18] = system: LOX IMVI; test: NCI60 five-dose screen; conditions: Homo sapiens
[19] = system: OVCAR-4; test: NCI60 one-dose screen; conditions: Homo sapiens
[20] = system: RXF 393; test: NCI60 five-dose screen; conditions: Homo sapiens
[21] = system: IGROV1; test: NCI60 one-dose screen; conditions: Homo sapiens
[22] = system: LOX IMVI; test: NCI60 one-dose screen; conditions: Homo sapiens, read-out: Growth percent
[23] = system: NCI-H322M; test: NCI60 one-dose screen; conditions: Homo sapiens, read-out: Growth percent
[24] = system: NCI-H460; test: NCI60 one-dose screen; conditions: Homo sapiens
[25] = system: SK-MEL-5; test: NCI60 five-dose screen; conditions: Homo sapiens
[26] = system: Ovarian Cancer panel; test: NCI60 five-dose screen, panel mean; conditions: Homo sapiens, read-out: Mean GI50
[27] = system: SF-539; test: NCI60 five-dose screen; conditions: Homo sapiens
[28] = system: CCRF-CEM; test: NCI60 one-dose screen; conditions: Homo sapiens, read-out: Growth percent
[29] = system: CAKI-1; test: NCI60 five-dose screen; conditions: Homo sapiens
[30] = system: SK-MEL-5; test: NCI60 one-dose screen; conditions: Homo sapiens
[31] = system: TK-10; test: NCI60 one-dose screen; conditions: Homo sapiens
[32] = system: MALME-3M; test: NCI60 five-dose screen; conditions: Homo sapiens
[33] = system: NCI-H522; test: NCI60 five-dose screen; conditions: Homo sapiens
[34] = system: NCI-H522; test: NCI60 one-dose screen; conditions: Homo sapiens
[35] = system: OVCAR-5; test: NCI60 one-dose screen; conditions: Homo sapiens
[36] = system: HCT-116; test: NCI60 five-dose screen; conditions: Homo sapiens
[37] = system: MDA-MB-468; test: NCI60 five-dose screen; conditions: Homo sapiens
[38] = system: HCC-2998; test: NCI60 five-dose screen; conditions: Homo sapiens
[39] = system: SK-MEL-28; test: NCI60 five-dose screen; conditions: Homo sapiens
[40] = system: 786-0; test: NCI60 five-dose screen; conditions: Homo sapiens
[41] = system: IGROV1; test: NCI60 five-dose screen; conditions: Homo sapiens, IGROV-1
[42] = system: T-47D; test: NCI60 one-dose screen; conditions: Homo sapiens, T47D, read-out: Growth percent
[43] = system: MCF7; test: NCI60 one-dose screen; conditions: Homo sapiens
[44] = system: SNB-19; test: NCI60 one-dose screen; conditions: Homo sapiens
[45] = system: SNB-75; test: NCI60 one-dose screen; conditions: Homo sapiens
[46] = system: UACC-257; test: NCI60 one-dose screen; conditions: Homo sapiens
[47] = system: MOLT-4; test: NCI60 five-dose screen; conditions: Homo sapiens

CC[C@]12C=CCN3CC[C@@]4(c5ccc(OC)cc5N(C)[C@H]4[C@@](O)(C(=O)OC)[C@@H]1OC(=O)CCC[P+](c1ccc(OC)cc1)(c1ccc(OC)cc1)c1ccc(OC)cc1)[C@@H]32 [9b]
GI50 ([1]; mean over Breast Cancer panel): 0.64 µM | activity at 10 µM ([2]; A549/ATCC, 10 μM, one-dose, read-out: Growth percent): -91.4% | GI50 ([3]; mean over Colon Cancer panel): 0.98 µM | GI50 ([4]; mean over Melanoma panel): 0.76 µM | activity at 10 µM ([5]; M14, 10 μM, one-dose, read-out: Growth percent): -88.4% | GI50 ([6]; KM12, KM12, Colon Cancer, five-dose, read-out: GI50): 0.628 µM | activity at 10 µM ([7]; NCI-H23, 10 μM, one-dose, read-out: Growth percent): -92.5% | GI50 ([8]; HCT-15, Colon Cancer, five-dose, read-out: GI50): 3.64 µM | GI50 ([9]; RPMI-8226, Leukemia, five-dose, read-out: GI50): 0.275 µM | activity at 10 µM ([10]; HCT-15, 10 μM, one-dose, read-out: Growth percent): -86.3% | GI50 ([11]; mean over Leukemia panel): 0.55 µM | activity at 10 µM ([12]; UO-31, 10 μM, one-dose, read-out: Growth percent): -56.8% | GI50 ([13]; mean over Non-small Cell Lung Cancer panel): 1.09 µM | activity at 10 µM ([14]; CAKI-1, 10 μM, one-dose, read-out: Growth percent): -93.3% | GI50 ([15]; MCF7, MCF7, Breast Cancer, five-dose, read-out: GI50): 0.383 µM | GI50 ([16]; UACC-257, UACC-257, Melanoma, five-dose, read-out: GI50): 0.646 µM | activity at 10 µM ([17]; OVCAR-3, 10 μM, one-dose, read-out: Growth percent): -73.6% | GI50 ([18]; Melanoma, five-dose, read-out: GI50): 0.614 µM | activity at 10 µM ([19]; OVCAR-4, 10 μM, one-dose, read-out: Growth percent): -75.3% | GI50 ([20]; RXF 393, Renal Cancer, five-dose, read-out: GI50): 0.482 µM | activity at 10 µM ([21]; IGROV-1, IGROV1, 10 μM, one-dose, read-out: Growth percent): -92.1% | activity at 10 µM ([22]; 10 μM, one-dose): -96.4% | activity at 10 µM ([23]; 10 μM, one-dose): -97.7% | activity at 10 µM ([24]; NCI-H460, 10 μM, one-dose, read-out: Growth percent): -85.2% | GI50 ([25]; SK-MEL-5, Melanoma, five-dose, read-out: GI50): 1.55 µM | GI50 ([26]; mean over Ovarian Cancer panel): 3.46 µM | GI50 ([27]; SF-539, CNS Cancer, five-dose, read-out: GI50): 1.23 µM | activity at 10 µM ([28]; 10 μM, one-dose): -71.2% | GI50 ([29]; CAKI-1, Renal Cancer, five-dose, read-out: GI50): 13.7 µM | activity at 10 µM ([30]; SK-MEL-5, 10 μM, one-dose, read-out: Growth percent): -99.6% | activity at 10 µM ([31]; TK-10, 10 μM, one-dose, read-out: Growth percent): -90.7% | GI50 ([32]; MALME-3M, Melanoma, five-dose, read-out: GI50): 0.624 µM | GI50 ([33]; NCI-H522, Non-small Cell Lung Cancer, five-dose, read-out: GI50): 0.391 µM | activity at 10 µM ([34]; NCI-H522, 10 μM, one-dose, read-out: Growth percent): -89.4% | activity at 10 µM ([35]; OVCAR-5, 10 μM, one-dose, read-out: Growth percent): -96.5% | GI50 ([36]; HCT-116, Colon Cancer, five-dose, read-out: GI50): 0.712 µM | GI50 ([37]; MDA-MB-468, MDA-MB-468, Breast Cancer, five-dose, read-out: GI50): 0.241 µM | GI50 ([38]; HCC-2998, Colon Cancer, five-dose, read-out: GI50): 0.498 µM | GI50 ([39]; SK-MEL-28, Melanoma, five-dose, read-out: GI50): 0.453 µM | GI50 ([40]; 786-0, Renal Cancer, five-dose, read-out: GI50): 1.93 µM | GI50 ([41]; IGROV1, Ovarian Cancer, five-dose, read-out: GI50): 0.533 µM | activity at 10 µM ([42]; T-47D, 10 μM, one-dose): -61.4% | activity at 10 µM ([43]; MCF7, 10 μM, one-dose, read-out: Growth percent): -83% | activity at 10 µM ([44]; SNB-19, 10 μM, one-dose, read-out: Growth percent): -96.7% | activity at 10 µM ([45]; SNB-75, 10 μM, one-dose, read-out: Growth percent): -34% | activity at 10 µM ([46]; UACC-257, 10 μM, one-dose, read-out: Growth percent): -93.5% | GI50 ([47]; MOLT-4, Leukemia, five-dose, read-out: GI50): 0.933 µM

CC[C@]12C=CCN3CC[C@@]4(c5ccc(OC)cc5N(C)[C@H]4[C@@](O)(C(=O)OC)[C@@H]1OC(=O)CCC[P+](c1ccc(F)cc1)(c1ccc(F)cc1)c1ccc(F)cc1)[C@@H]32 [9c]
GI50 [1]: 8.04 µM | activity at 10 µM ([2]; A549, read-out: Growth percent): 54.5% | GI50 [3]: 16.8 µM | GI50 [4]: 8.13 µM | activity at 10 µM ([5]; M14, read-out: Growth percent): 21.4% | GI50 ([6]; KM12): 8.96 µM | activity at 10 µM ([7]; NCI-H23, read-out: Growth percent): 35.5% | GI50 ([8]; HCT-15): > 48.5 µM | GI50 ([9]; RPMI-8226): 2.05 µM | activity at 10 µM ([10]; HCT-15, read-out: Growth percent): 99.6% | GI50 [11]: 7.25 µM | activity at 10 µM ([12]; UO-31, read-out: Growth percent): 81.5% | GI50 [13]: 19.6 µM | activity at 10 µM ([14]; CAKI-1, read-out: Growth percent): 73.1% | GI50 ([15]; MCF7): 8.26 µM | GI50 ([16]; UACC-257): 4.67 µM | activity at 10 µM ([17]; OVCAR-3, read-out: Growth percent): 21.1% | GI50 [18]: 16.6 µM | activity at 10 µM ([19]; OVCAR-4, read-out: Growth percent): 48.6% | GI50 ([20]; RXF 393): 8.46 µM | activity at 10 µM ([21]; IGROV-1, read-out: Growth percent): -15% | activity at 10 µM [22]: 31.1% | activity at 10 µM [23]: 65.2% | activity at 10 µM ([24]; NCI-H460, read-out: Growth percent): 30.9% | GI50 ([25]; SK-MEL-5): 8.26 µM | GI50 [26]: 19 µM | GI50 ([27]; SF-539): 16.8 µM | activity at 10 µM [28]: 20% | GI50 ([29]; CAKI-1): > 48.5 µM | activity at 10 µM ([30]; SK-MEL-5, read-out: Growth percent): -38.3% | activity at 10 µM ([31]; TK-10, read-out: Growth percent): 63.9% | GI50 ([32]; Malme-3M): 6.85 µM | GI50 ([33]; NCI-H522): 3.88 µM | activity at 10 µM ([34]; NCI-H522, read-out: Growth percent): -17.7% | activity at 10 µM ([35]; OVCAR-5, read-out: Growth percent): 67% | GI50 ([36]; HCT-116): 14.8 µM | GI50 ([37]; MDA-MB-468): 1.5 µM | GI50 ([38]; HCC 2998): 9.53 µM | GI50 ([39]; SK-MEL-28): 5.34 µM | GI50 ([40]; 786-0): > 48.5 µM | GI50 [41]: 7.09 µM | activity at 10 µM [42]: 10.4% | activity at 10 µM ([43]; MCF7, read-out: Growth percent): 7.7% | activity at 10 µM ([44]; SNB-19, read-out: Growth percent): 13.8% | activity at 10 µM ([45]; SNB-75, read-out: Growth percent): 39.9% | activity at 10 µM ([46]; UACC-257, read-out: Growth percent): -34.3% | GI50 ([47]; MOLT-4): 9.69 µM
